{"source": "patent US20260035403A1", "about": "“NUCLEOSIDE LINE-1 INHIBITORS” (TRANSPOSON THERAPEUTICS, INC., priority 2022, published 2026)"}
{"tested_on": "human LINE-1", "test": "Human LINE-1 retrotransposition assay (HeLa cell-based dual-luciferase reporter)", "conditions": "Homo sapiens, HeLa, 72 h, Human LINE-1 activity inhibition; HeLa cells, reporter plasmid pYX017, Firefly/Renilla, 72 h incubation", "summary_of_the_method": "(§1)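 HeLa cells transfected with pYX017 dual-luciferase L1 reporter and treated with serially diluted compound (0.2% DMSO final) for 72 h at 37° C. Relative L1 activity as Firefly/Renilla ratio; IC50 from four-parameter logistic fit.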", "units": {"IC50": "µM"}}
{"smiles": "C#C[C@]1(CO)O[C@@H](n2cnc3c(OC)nc(N)nc32)C[C@@H]1O", "note": "[compound 101, (2R,3S,5R)-5-(2-amino-6-methoxy-9H-purin-9-yl)-2-ethynyl-2-(hydroxymethyl)tetrahydrofuran-3-ol]", "IC50": 0.259}
{"smiles": "C=C[C@]1(CO)O[C@H](Nc2[nH]c(=O)ncc2Br)C[C@@H]1O", "note": "[compound 104, 5-bromo-6-(((2S,4S,5R)-4-hydroxy-5-(hydroxymethyl)-5-vinyltetrahydrofuran-2-yl)amino)pyrimidin-2(1H)-one]", "IC50": 4.9}
{"smiles": "CC[C@]1(CO)O[C@@H](n2cc(Br)c(N)nc2=O)C[C@@H]1O", "note": "[compound 105, 4-amino-5-bromo-1-((2R,4S,5R)-5-ethyl-4-hydroxy-5-(hydroxymethyl)tetrahydrofuran-2-yl)pyrimidin-2(1H)-one]", "IC50": 0.15}
{"smiles": "C#C[C@@]1(COC)C=C[C@H](n2cc(C)c(=O)[nH]c2=O)O1", "note": "[compound 106, 1-((2R,5R)-5-ethynyl-5-(methoxymethyl)-2,5-dihydrofuran-2-yl)-5-methylpyrimidine-2,4(1H,3H)-dione]", "IC50": 24}
{"smiles": "COC[C@@H]1C=C[C@H](n2cc(C)c(=O)[nH]c2=O)O1", "note": "[compound 107, 1-((2R,5S)-5-(methoxymethyl)-2,5-dihydrofuran-2-yl)-5-methylpyrimidine-2,4(1H,3H)-dione]", "IC50": 7.3}
{"smiles": "Nc1nc(=O)n([C@H]2C[C@@H]3OC=C[C@]3(CO)O2)cc1F", "note": "[compound 139, 4-amino-5-fluoro-1-((2R,3aS,6aR)-6a-(hydroxymethyl)-2,3,3a,6a-tetrahydrofuro[3,2-b]furan-2-yl)pyrimidin-2(1H)-one]", "IC50": 3.17}
{"smiles": "Nc1nc(F)nc2c1ncn2[C@H]1C[C@H](O)C(CO)(CO)O1", "note": "[compound 154, ((3S,5R)-5-(6-amino-2-fluoro-9H-purin-9-yl)-3-hydroxytetrahydrofuran-2,2-diyl)dimethanol]", "IC50": "> 40"}
{"smiles": "COc1nc(N)nc2c1ncn2[C@H]1C[C@H](O)[C@](CO)(CF)O1", "note": "[compound 163, (2R,3S,5R)-5-(2-amino-6-methoxy-9H-purin-9-yl)-2-(fluoromethyl)-2-(hydroxymethyl)tetrahydrofuran-3-ol]", "IC50": 14}
{"smiles": "N#C[C@]1(CO)O[C@@H](n2cc(Cl)c(N)nc2=O)C[C@@H]1O", "note": "[compound 164, (2R,3S,5R)-5-(4-amino-5-chloro-2-oxopyrimidin-1(2H)-yl)-3-hydroxy-2-(hydroxymethyl)tetrahydrofuran-2-carbonitrile]", "IC50": "> 50"}
{"smiles": "CNc1nc(N)nc2c1ncn2[C@H]1C[C@H](O)[C@](CO)(CF)O1", "note": "[compound 166, (2R,3S,5R)-5-(2-amino-6-(methylamino)-9H-purin-9-yl)-2-(fluoromethyl)-2-(hydroxymethyl)tetrahydrofuran-3-ol]", "IC50": 0.417}
{"smiles": "C[C@]1(CO)O[C@@H](n2cc(F)c(=O)[nH]c2=O)[C@H](O)[C@@H]1O", "note": "[compound 189, 1-((2R,3R,4S,5R)-3,4-dihydroxy-5-(hydroxymethyl)-5-methyltetrahydrofuran-2-yl)-5-fluoropyrimidine-2,4(1H,3H)-dione]", "IC50": 9.17}
{"smiles": "CC[C@]1(CO)O[C@@H](n2cnc3c(N)nc(Cl)nc32)C[C@@H]1O", "note": "[compound 190, (2R,3S,5R)-5-(6-amino-2-chloro-9H-purin-9-yl)-2-ethyl-2-(hydroxymethyl)tetrahydrofuran-3-ol]", "IC50": "~50"}
{"smiles": "CC[C@]1(CO)O[C@@H](n2cnc3c(N)ncnc32)[C@@H](F)[C@@H]1O", "note": "[compound 192, (2R,3R,4S,5R)-5-(6-amino-9H-purin-9-yl)-2-ethyl-4-fluoro-2-(hydroxymethyl)tetrahydrofuran-3-ol]", "IC50": 0.122}
{"smiles": "CC[C@]1(CO)O[C@@H](n2cnc3c(N)nc(Cl)nc32)[C@@H](O)[C@@H]1O", "note": "[compound 193, (2R,3S,4S,5R)-5-(6-amino-2-chloro-9H-purin-9-yl)-2-ethyl-2-(hydroxymethyl)tetrahydrofuran-3,4-diol]", "IC50": 2.81}
{"smiles": "CC[C@]1(CO)O[C@@H](n2cnc3c(N)ncnc32)[C@@H](O)[C@@H]1O", "note": "[compound 194, (2R,3S,4S,5R)-5-(6-amino-9H-purin-9-yl)-2-ethyl-2-(hydroxymethyl)tetrahydrofuran-3,4-diol]", "IC50": 1.94}
{"smiles": "CC[C@]1(CO)O[C@@H](n2cnc3c(N)nc(Cl)nc32)[C@H](O)[C@@H]1O", "note": "[compound 195, (2R,3S,4R,5R)-5-(6-amino-2-chloro-9H-purin-9-yl)-2-ethyl-2-(hydroxymethyl)tetrahydrofuran-3,4-diol]", "IC50": "> 50"}
{"smiles": "CC[C@]1(CO)O[C@@H](n2cnc3c(N)ncnc32)[C@H](O)[C@@H]1O", "note": "[compound 196, (2R,3S,4R,5R)-5-(6-amino-9H-purin-9-yl)-2-ethyl-2-(hydroxymethyl)tetrahydrofuran-3,4-diol]", "IC50": "> 50"}
{"smiles": "C[C@]1(CO)O[C@@H](n2ccc(N)nc2=O)[C@H](O)[C@@H]1O", "note": "[compound 198, 4-amino-1-((2R,3R,4S,5R)-3,4-dihydroxy-5-(hydroxymethyl)-5-methyltetrahydrofuran-2-yl)pyrimidin-2(1H)-one]", "IC50": "> 50"}
{"smiles": "C#C[C@]1(CO)O[C@@H](n2ccc(N)nc2=O)C(F)(F)[C@@H]1O", "note": "[compound 200, 4-amino-1-((2R,4R,5R)-5-ethynyl-3,3-difluoro-4-hydroxy-5-(hydroxymethyl)tetrahydrofuran-2-yl)pyrimidin-2(1H)-one]", "IC50": 414}
{"tested_on": "human LINE-1", "test": "Human LINE-1 retrotransposition assay (HeLa cell-based dual-luciferase reporter)", "conditions": "Human LINE-1 activity inhibition; HeLa cells, reporter plasmid pYX017, Firefly/Renilla, 72 h incubation", "summary_of_the_method": "as §1", "units": {"IC50": "µM"}}
{"smiles": "CC[C@]1(CO)O[C@@H](n2cnc3c(N)nc(Cl)nc32)[C@@H](F)[C@@H]1O", "note": "[compound 182, (2R,3R,4S,5R)-5-(6-amino-2-chloro-9H-purin-9-yl)-2-ethyl-4-fluoro-2-(hydroxymethyl)tetrahydrofuran-3-ol]", "IC50": 293}
{"smiles": "CC[C@]1(CO)O[C@@H](n2cnc3c(N)nc(F)nc32)[C@@H](F)[C@@H]1O", "note": "[compound 191, (2R,3R,4S,5R)-5-(6-amino-2-fluoro-9H-purin-9-yl)-2-ethyl-4-fluoro-2-(hydroxymethyl)tetrahydrofuran-3-ol]", "IC50": 56}
